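Here, GI50 denotes the concentration required for 50% inhibition of growth. The concentration for full growth arrest is given as TGI.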
Legend:
Assay in all cases: NCI tumour cell line growth inhibition, 384-well format
MDA-MB-231 breast = test system: MDA-MB-231 breast
NCI-H23 lung = test system: NCI-H23 lung
HCT-116 colon = test system: HCT-116 colon
MALME-3M melanoma = test system: MALME-3M melanoma
CAKI-1 renal = test system: CAKI-1 renal
K-562 leukemia = test system: K-562 leukemia
HL-60(TB) leukemia = test system: HL-60(TB) leukemia
NCI-H522 lung = test system: NCI-H522 lung
SF-295 CNS = test system: SF-295 CNS
RXF 393 renal = test system: RXF 393 renal
HCC-2998 colon = test system: HCC-2998 colon
MOLT-4 leukemia = test system: MOLT-4 leukemia
786-0 renal = test system: 786-0 renal

COCc1c(-c2cc3cc(C)cc(OC)c3s2)c2c(N)ncnn2c1CN1CCNC(=O)C1
GI50 (MDA-MB-231 breast): 5.63 µM | TGI (MDA-MB-231 breast): > 72.1 µM | GI50 (NCI-H23 lung): 4.13 µM | TGI (NCI-H23 lung): 28.9 µM | GI50 (HCT-116 colon): 7.4 µM | TGI (HCT-116 colon): > 100 µM | GI50 (MALME-3M melanoma): 4.55 µM | TGI (MALME-3M melanoma): 32.6 µM | GI50 (CAKI-1 renal): 3.41 µM | TGI (CAKI-1 renal): 15.1 µM | GI50 (K-562 leukemia): 20.1 µM | TGI (K-562 leukemia): > 100 µM | GI50 (HL-60(TB) leukemia): 7.53 µM | TGI (HL-60(TB) leukemia): 21.8 µM | GI50 (NCI-H522 lung): 3.66 µM | TGI (NCI-H522 lung): 30.6 µM | GI50 (SF-295 CNS): 18.2 µM | TGI (SF-295 CNS): > 100 µM | GI50 (RXF 393 renal): 1.19 µM | TGI (RXF 393 renal): 8.32 µM | GI50 (HCC-2998 colon): 19.1 µM | TGI (HCC-2998 colon): > 93.1 µM | GI50 (MOLT-4 leukemia): 2.68 µM | TGI (MOLT-4 leukemia): 8.5 µM | GI50 ([…]-0 renal): 14.2 µM | TGI (786-0 renal): > 93.2 µM

From PubChem BioAssay (NCI)
